Test results as given in patent publication US20220267753A1, “RATIONAL THERAPEUTIC TARGETING OF ONCOGENIC IMMUNE SIGNALING STATES IN MYELOID MALIGNANCIES VIA THE UBIQUITIN CONJUGATING ENZYME UBE2N” (CHILDREN'S HOSPITAL MEDICAL CENTER, priority 2019, published 2022).
Like-named read-outs stand apart in the source and are kept apart here.

How the values were obtained:
UBE2D1 = molecular target: T1, UBE2D1 (Homo sapiens, UniProt P51668); assay: Thioester bond formation assay; settings: same biochemical assay
T1 construct: purchased Enzo Life Science BML-UW9050
T1 sequence (P51668 whole entry): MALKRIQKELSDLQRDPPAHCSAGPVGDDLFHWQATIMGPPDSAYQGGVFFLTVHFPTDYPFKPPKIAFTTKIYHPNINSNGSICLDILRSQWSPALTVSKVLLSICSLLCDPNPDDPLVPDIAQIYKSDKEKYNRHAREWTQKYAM
Method: (§1) An in vitro Ubiquitin-E2 thioester (TE) bond formation assay was performed as described (Enzo Life Science, #BML-UW9920-0001, Farmingdale, N.Y.). The reaction was prepared as follows: 10×E2 (UBE2N/Mms2, No. BML-UW9565; UbcH5a, No. BML-UW9050; or UbcH6, Prod. No. BML-UW8710) were incubated with UC-764864 or UC-764865 at 1 or 2 μM for 30 minutes at room temperature. After the incubation period, the following reagents were added to the reaction: distilled water, 10× ubiquitination buffer, inorganic pyrophosphatase solution (100 U/mL in 20 mM Tris-HCl, pH 7.5, Sigma, 83205, St. Louis, Mo.), 50 mM DTT, 0.1 M Mg-ATP, 20×E1 (recombinant human ubiquitin-activating enzyme) and 20× biotinylated ubiquitin to a final volume of 10 p.l. The mixture was incubated for 4 hours at 37° C. The reaction was stopped by adding 10 p.l 2× non-reducing gel loading buffer. 15 p.l of the samples were run on SDS-PAGE gels and transferred to PVDF membrane. […] After washing the membrane for 6×10 mins with TBS-T on a rocking platform, total ubiquitin was detected with ECL detection reagent (Pierce™ ECL Western Blotting Substrate, #32106, Appleton, Wis.) according to the manufacturer's instructions. Detect emitted signal with Biorad ChemiDoc™ MP and analyzed with Image lab software 6.0.1 (Biorad, Hercules, Calif.) or Image J [67]. […]

UBE2E1 = molecular target: T2, UBE2E1 (Homo sapiens, UniProt P51965); assay: Thioester bond formation assay; settings: same biochemical assay
T2 construct: purchased Enzo Life Science BML-UW8710
T2 sequence (P51965 whole entry): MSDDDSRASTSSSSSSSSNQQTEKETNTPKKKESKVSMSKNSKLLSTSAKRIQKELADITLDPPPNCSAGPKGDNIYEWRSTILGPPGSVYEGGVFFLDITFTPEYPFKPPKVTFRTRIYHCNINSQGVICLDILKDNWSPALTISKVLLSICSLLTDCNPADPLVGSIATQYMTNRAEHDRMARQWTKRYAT
Method: as §1

AML cell lines = assay: Cell proliferation MTS assay, panel of AML cell lines; format: cell-based; settings: Homo sapiens
Method: AML cell lines (5×10^3 cells/well) were seeded in 96-well plates and grown for 24 to 96 h in serum (10%)-containing medium in the presence or absence of inhibitors at the indicated concentrations. Proliferation was analyzed by means of an MTS assay using the CellTiter 96 Aqueous One Solution Cell Proliferation Assay (Promega, Madison, Wis., USA), according to the manufacturer's instructions. Data are mean with standard deviation from three independent experiments in technical triplicates. For the screening of 160 compounds from the UC library, the cell metabolic activity was assessed at 24 hours of treatment of MOLM-13 cells. Top 15 candidates were re-screened at 2 μM, and the cell metabolic activity was determined at 24 hours of treatment. In certain experiments, cell viability was determined by staining the cells with trypan blue at a 1/2 dilution and counting total number of viable cells upon treatment with UC-764864 or DMSO control. The cells were counted daily for 4 days using an automated cell counter (Countess II FL from Life Technologies). […] UC-764864 was added at the indicated concentrations and cells were incubated with drug for 3 days, at which point cell viability was measured by MTS according to manufacturer's instructions.

MDSL = assay: Cell proliferation MTS assay; format: cell-based; settings: Homo sapiens, 24 hours
Method: AML cell lines (5×10^3 cells/well) were seeded in 96-well plates and grown for 24 to 96 h in serum (10%)-containing medium in the presence or absence of inhibitors at the indicated concentrations. Proliferation was analyzed by means of an MTS assay using the CellTiter 96 Aqueous One Solution Cell Proliferation Assay (Promega, Madison, Wis., USA), according to the manufacturer's instructions. Data are mean with standard deviation from three independent experiments in technical triplicates. For the screening of 160 compounds from the UC library, the cell metabolic activity was assessed at 24 hours of treatment of MOLM-13 cells. Top 15 candidates were re-screened at 2 μM, and the cell metabolic activity was determined at 24 hours of treatment. In certain experiments, cell viability was determined by staining the cells with trypan blue at a 1/2 dilution and counting total number of viable cells upon treatment with UC-764864 or DMSO control. The cells were counted daily for 4 days using an automated cell counter (Countess II FL from Life Technologies). The cell proliferation in primary AMLs in FIG. 9E was performed as follows: 50,000 cells were plated in duplicate in a 96 well plate in IMDM containing 20% heat inactivated FBS plus 10 ng/ml of each SCF, IL3, IL6, TPO, and FLT3. UC-764864 was added at the indicated concentrations and cells were incubated with drug for 3 days, at which point cell viability was measured by MTS according to manufacturer's instructions.

[1] = tested on: patient-derived AML cells; assay: Patient-derived xenografts (PDX) in NSGS mice; format: in vivo

interference with activity of UBE2D1 (UBE2D1)	interference with activity of UBE2E1 (UBE2E1)	Compound	IC50 (AML cell lines; HL-60, NOMO-1, Kasumi-1, MV4-11, MDSL, read-out: IC50, cell lines with intermediate sensitivity) [µM]	IC50 (AML cell lines; MOLM-14, MOLM-13, THP-1, SKM-1, read-out: IC50, highly sensitive cell lines) [µM]	IC50 (MDSL) [µM]	leukemic burden of mice xenografted with UBE2N-resistant sample AML-JM60 ([1]; 25 mg/kg IP)	total and ubiquitinated UBE2N in BM cells of mice xenografted with AML-JM40 ([1]; 25 mg/kg, vs vehicle, immunoblot)	reduction in leukemic burden of UBE2N-sensitive AML cells in the BM ([1]; JM7, JM40, JM26, 25 mg/kg IP, P=0.008)
did not interfere	did not interfere	CCc1ccc(C(=O)C=CSc2nc3ccc(C)cc3[nH]2)cc1 [UC-764864, 1-(4-ethylphenyl)-3-[(6-methyl-1H-benzimidazol-2-yl)sulfanyl]prop-2-en-1-one]	4.3 to 6.7	0.02 to 2.5	5.6	–	–	–
–	–	COc1ccc(C(=O)C=CSc2nc3ccc(C)cc3[nH]2)cc1 [UC-764865, 1-(4-methoxyphenyl)-3-[(6-methyl-1H-benzimidazol-2-yl)sulfanyl]prop-2-en-1-one]	–	–	–	did not decrease	reduced	30-60%
